Data taken from ChEMBL document CHEMBL1145584, “Cycloalkyl-substituted aryl chloroethylureas inhibiting cell cycle progression in G0/G1 phase and thioredoxin-1 nuclear translocation” (2008).
The source made the active and inactive calls. The calls are words filed in the database; no cut-off is given here.

Key:
[1] = tested on: MCF7; experiment: Antiproliferative activity against human MCF7 cells; assay type: functional
[2] = tested on: M21; experiment: Antiproliferative activity against human M21 cells; assay type: functional
[3] = tested on: M21; experiment: Effect on thioredoxin-1 nuclear translocation in human M21 cells at 50 uM by immunocytochemistry analysis; assay type: functional, cell-based
[4] = tested on: HT-29; experiment: Antiproliferative activity against human HT29 cells; assay type: functional
[5] = tested on: MCF7; experiment: Cell cycle arrest in human MCF7 cells assessed as increase in G2/M phase accumulation at 50 uM after 16 hrs by FACS analysis; assay type: functional
[6] = tested on: MCF7; experiment: Cell cycle arrest in human MCF7 cells assessed as increase in G0/G1 phase accumulation at 50 uM after 16 hrs by FACS analysis; assay type: functional
[7] = tested on: MCF7; experiment: Cell cycle arrest in human MCF7 cells assessed as increase in S phase accumulation at 50 uM after 16 hrs by FACS analysis; assay type: functional
[8] = tested on: MCF7; experiment: Cell cycle arrest in human MCF7 cells assessed as increase in S phase accumulation at 25 uM after 16 hrs by FACS analysis; assay type: functional
[9] = tested on: M21; experiment: Effect on thioredoxin-1 nuclear translocation in human M21 cells at 25 uM by immunocytochemistry analysis; assay type: functional, cell-based
[10] = tested on: MCF7; experiment: Cell cycle arrest in human MCF7 cells assessed as increase in G0/G1 phase accumulation at 25 uM after 16 hrs by FACS analysis; assay type: functional
[11] = tested on: MCF7; experiment: Cell cycle arrest in human MCF7 cells assessed as increase in G2/M phase accumulation at 25 uM after 16 hrs by FACS analysis; assay type: functional
[12] = tested on: MCF7; experiment: Cell cycle arrest in human MCF7 cells assessed as increase in G0/G1 phase accumulation at 2 times GI50 after 25 hrs by flow cytometry; assay type: functional, cell-based
[13] = tested on: MCF7; experiment: Cell cycle arrest in human MCF7 cells assessed as increase in G0/G1 phase accumulation at 1 time GI50 after 25 hrs by flow cytometry; assay type: functional, cell-based
[14] = tested on: MCF7; experiment: Cell cycle arrest in human MCF7 cells assessed as increase in G0/G1 phase accumulation at 4 times GI50 after 25 hrs by flow cytometry; assay type: functional, cell-based
[15] = tested on: M21; experiment: Effect on thioredoxin-1 nuclear translocation in human M21 cells at 30 uM after 24 hrs by Western blot analysis; assay type: functional, cell-based
[16] = tested on: M21; experiment: Effect on thioredoxin-1 nuclear translocation in human M21 cells at 50 uM after 24 hrs by Western blot analysis; assay type: functional, cell-based
[17] = tested on: MCF7; experiment: Cell cycle arrest in human MCF7 cells assessed as increase in G2/M phase accumulation at 4 times GI50 after 25 hrs by flow cytometry; assay type: functional, cell-based
[18] = tested on: MCF7; experiment: Cell cycle arrest in human MCF7 cells assessed as increase in G2/M phase accumulation at 1 time GI50 after 25 hrs by flow cytometry; assay type: functional, cell-based
[19] = tested on: MCF7; experiment: Cell cycle arrest in human MCF7 cells assessed as increase in G2/M phase accumulation at 2 times GI50 after 25 hrs by flow cytometry; assay type: functional, cell-based
[20] = tested on: M21; experiment: Effect on thioredoxin-1 nuclear translocation in human M21 cells at 25 uM after 24 hrs by Western blot analysis; assay type: functional, cell-based
[21] = tested on: M21; experiment: Antiproliferative activity against human M21 cells at 100 uM; assay type: functional, cell-based
[22] = tested on: HT-29; experiment: Antiproliferative activity against human HT29 cells at 100 uM; assay type: functional, cell-based
[23] = tested on: MCF7; experiment: Antiproliferative activity against human MCF7 cells at 100 uM; assay type: functional, cell-based
[24] = tested on: MCF7; experiment: Cell cycle arrest in human MCF7 cells assessed as increase in G0/G1 phase accumulation at 0.1 uM after 16 hrs by FACS analysis; assay type: functional
[25] = tested on: MCF7; experiment: Cell cycle arrest in human MCF7 cells assessed as increase in G2/M phase accumulation at 0.1 uM after 16 hrs by FACS analysis; assay type: functional
[26] = tested on: MCF7; experiment: Cell cycle arrest in human MCF7 cells assessed as increase in S phase accumulation at 0.1 uM after 16 hrs by FACS analysis; assay type: functional

GI50 [1] [µM]	GI50 [4] [µM]	SMILES	GI50 [2] [µM]	Activity [3]	Activity [5] [%]	Activity [6] [%]	Activity [7] [%]	further results
5.6	1.9	O=C(NCCCl)Nc1ccc2ccccc2c1	4.1	Active	45	17	38	–
9.1	2.4	O=C(NCCCl)Nc1ccc(Oc2ccccc2)cc1	5.2	–	–	–	–	Activity [8]: 20%; Activity [9]: inactive; Activity [10]: 15%; Activity [11]: 65%
25	7.9	O=C(NCCCl)Nc1cccc(OC2CCCCC2)c1	20	Active	8	59	33	–
21	12.6	O=C(NCCCl)Nc1ccc(C2CCCCC2)cc1	21	Active	13	71	16	Activity [12]: Active; Activity [13]: Active; Activity [14]: Active; Activity [15]: Active; Activity [16]: Active
24	5.6	O=C(NCCCl)Nc1cccc(Oc2ccccc2)c1	16	inactive	30	44	26	–
14.1	3.6	O=C(NCCCl)Nc1ccc2c(c1)CCC2	8	–	–	–	–	Activity [8]: 29%; Activity [10]: 31%; Activity [17]: Active; Activity [18]: Active; Activity [11]: 40%; Activity [19]: Active
49	31	O=C(NCCCl)Nc1ccc(OC2CCCC2)cc1	38	Active	9	72	19	–
19	12.5	O=C(NCCCl)Nc1ccc(OC2CCCCCC2)cc1	18	Active	6	75	19	–
8.3	25	CCC(C)SSc1ncc[nH]1 (stereo not drawn) [PX-12]	8.3	–	–	–	–	Activity [8]: 13%; Activity [10]: 29%; Activity [11]: 58%
45	23	O=C(NCCCl)Nc1ccc(OC2CCCCC2)cc1	36	Active	14	57	29	–
22	19	O=C(NCCCl)NC1c2ccccc2-c2ccccc21	27	Active	8	63	29	–
–	–	O=C(NCCCl)Nc1ccc(I)cc1	–	–	–	–	–	Activity [8]: 33%; Activity [9]: Active; Activity [10]: 25%; Activity [11]: 42%
–	–	CC(C)(C)c1ccc(NC(=O)NCCCl)cc1	–	–	–	–	–	Activity [8]: 24%; Activity [10]: 17%; Activity [15]: inactive; Activity [11]: 58%; Activity [20]: inactive
35	9.9	O=C(NCCCl)Nc1cccc(OC2CCCC2)c1	22	Active	12	64	24	–
–	–	CCNC(=O)Nc1ccc(C2CCCCC2)cc1	–	–	22	55	23	Activity [21]: inactive; Activity [22]: inactive; Activity [23]: inactive
21	10.7	O=C(NCCCl)Nc1cccc(OC2CCCCCC2)c1	20	Active	6	72	22	–
–	–	CC(=O)O[C@H]1C(=O)[C@@]2(C)[C@H]([C@H](OC(=O)c3ccccc3)[C@]3(O)C[C@H](OC(=O)[C@H](O)[C@@H](NC(=O)c4ccccc4)c4ccccc4)C(C)=C1C3(C)C)[C@]1(OC(C)=O)CO[C@@H]1C[C@@H]2O [PACLITAXEL]	–	–	–	–	–	Activity [24]: 9%; Activity [25]: 80%; Activity [26]: 11%
–	–	COc1cc2c(c(OC)c1OC)-c1ccc(OC)c(=O)cc1[C@@H](NC(C)=O)CC2 [COLCHICINE]	–	–	–	–	–	Activity [24]: 19%; Activity [25]: 62%; Activity [26]: 19%
